Reference: PubChem BioAssay AID1963966 (Molecular Pharmacology Branch, DTP, NCI, 2024)

System: 935938-334-R-J1-PDC spheroids with HUVEC/MSC, viability
Assay: Anticancer human tumor 935938-334-R-J1-PDC patient-derived small intestine adenocarcinoma cell line growth inhibition [PI3K]
Details: for IC50: curve of first compound; for viability, T/C: stronger effect = lower value; active = viability on the fitted dose curve at most 10% of control; inactive = the rest
Excerpt: Combinatorial screen of targeted agents with the PI3K inhibitors inavolisib, alpelisib, duvelisib, and copanlisib in multi-cell type tumor spheroids
A high-throughput screen of multi-cell type tumor spheroids was designed to identify active combinations of targeted small molecules and PI3K pathway inhibitors. Complex spheroids include a stromal component modeled by human endothelial cells (HUVEC) and fibroblasts modeled by human mesenchymal stem cells (MSCs). The concentration ranges selected for each drug and investigational agent were based upon clinically achievable concentrations if the clinical Cmax of the agent was known.
Compounds. The drugs and investigational agents: inavolisib (NSC800729), alpelisib (NSC765974), duvelisib (NSC772469), copanlisib (NSC816437), ipatasertib (NSC767898), afuresertib (NSC778305), talazoparib (NSC767125), sapanisertib (NSC764658), selumetinib (NSC741078), tovorafenib (DAY101, NSC766906), vemurafenib (NSC761431), ravoxertinib (NSC781343), sotorasib (NSC818433), MRTX1133 (NSC 836407), abemaciclib (NSC 768073), palbociclib (NSC758247), venetoclax (NSC 766270), SY5609 (NSC837396), enzalutamide (NSC755605), and darolutamide (NSC825331), were obtained from the National Cancer Institute (NCI) Developmental Therapeutics Program Chemical Repository. The FDA-approved anticancer drug set is available from the NCI Developmental Therapeutics Program. […] The stock solutions were prepared in dimethyl sulfoxide (DMSO, Sigma-Aldrich, St. Louis, MO, cat. D2650) at 800-fold the tested concentration and stored at -70 degrees C prior to their use. All drugs and investigational agents were tested over a range starting from a high concentration at or near the clinical Cmax and decreasing in half-log increments. If the clinical Cmax for an agent had not been determined, the highest concentration tested was 10 microM.
Cell Culture. All cells were maintained in an incubator at 37 degrees C and 5% CO2 with 95% humidity. The PDC lines were cultured according to standard operating procedures established by the NCI PDMR (https://pdmr.cancer.gov/sops/default.htm). All PDCs were thawed and cultured in Matrigel-coated flasks prepared with a working solution of 1X Ham's F-12 nutrient mix, without supplementation (Invitrogen, Waltham, MA, cat. 11765054), 100 U/mL penicillin-streptomycin (Invitrogen, cat. 15140122), and 2.5% Matrigel (Corning Inc., Corning, NY, cat. 354248) for the first three passages. The 354836-022-R-J1-PDC, 475296-252-R-J1-PDC, and 997726-040-R-J2-PDC lines were cultured in 6A media, which includes advanced DMEM/F-12 (Thermo Fisher Scientific, cat. 12634028), 10 mM HEPES (Thermo Fisher Scientific, cat. 15630080), 1X GlutaMAX supplement (Thermo Fisher Scientific, cat. 35050061), 0.1 mg/mL primocin (InvivoGen, San Diego, CA, cat. ant-pm-2), 10% defined fetal bovine serum, heat inactivated (HyClone Laboratories Inc., Logan, UT, cat. SH30070.03HI), 50% L-WRN conditioned media (ATCC, cat. CRL-3276), 1.25 mM N-Acetyl-L-cysteine (Sigma-Aldrich, cat. A9165), 10 mM nicotinamide (Sigma-Aldrich, cat. N0636), 1X B-27 supplement (Thermo Fisher Scientific, cat. 17504044), 1X N-2 supplement (Thermo Fisher Scientific, cat. 17502048), and 10 microM Y-27632 dihydrochloride (Tocris Bioscience, Bristol, United Kingdom, cat. 1254). The 624824-186-R-J2-PDC line was cultured in 6C/Colon 1B media, which includes all 6A media components plus 50 ng/mL human EGF recombinant protein (Thermo Fisher Scientific, cat. PHG0311). […]

[1] = second compound 0.00316 µM, first compound 0.0316 µM
[2] = second compound 0.00316 µM, first compound 0.1 µM
[3] = second compound 0.00316 µM, first compound 0.316 µM
[4] = second compound 0.00316 µM, first compound 1 µM
[5] = second compound 0.00316 µM, first compound 3.16 µM
[6] = second compound 0.00316 µM, first compound 10 µM
[7] = second compound 0.01 µM, first compound 0.0316 µM
[8] = second compound 0.01 µM, first compound 0.1 µM
[9] = second compound 0.01 µM, first compound 0.316 µM
[10] = second compound 0.01 µM, first compound 1 µM
[11] = second compound 0.01 µM, first compound 3.16 µM
[12] = second compound 0.01 µM, first compound 10 µM
[13] = second compound 0.0316 µM, first compound 0.0316 µM
[14] = second compound 0.0316 µM, first compound 0.1 µM
[15] = second compound 0.0316 µM, first compound 0.316 µM
[16] = second compound 0.0316 µM, first compound 1 µM
[17] = second compound 0.0316 µM, first compound 3.16 µM
[18] = second compound 0.0316 µM, first compound 10 µM
[19] = second compound 0.1 µM, first compound 0.0316 µM
[20] = second compound 0.1 µM, first compound 0.1 µM
[21] = second compound 0.1 µM, first compound 0.316 µM
[22] = second compound 0.1 µM, first compound 1 µM
[23] = second compound 0.1 µM, first compound 3.16 µM
[24] = second compound 0.1 µM, first compound 10 µM
[25] = second compound 0.316 µM, first compound 0.0316 µM
[26] = second compound 0.316 µM, first compound 0.1 µM
[27] = second compound 0.316 µM, first compound 0.316 µM
[28] = second compound 0.316 µM, first compound 1 µM
[29] = second compound 0.316 µM, first compound 3.16 µM
[30] = second compound 0.316 µM, first compound 10 µM
[31] = second compound 1 µM, first compound 0.0316 µM
[32] = second compound 1 µM, first compound 0.1 µM
[33] = second compound 1 µM, first compound 0.316 µM
[34] = second compound 1 µM, first compound 1 µM
[35] = second compound 1 µM, first compound 3.16 µM
[36] = second compound 1 µM, first compound 10 µM
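Note: compound exposure lasted seven days before viability was read.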
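Throughout, for viability, T/C: percent of vehicle DMSO treated spheroid viability so 100% = untreated.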

C=CC(=O)N1CCN(c2nc(=O)n(-c3c(C)ccnc3C(C)C)c3nc(-c4c(O)cccc4F)c(F)cc23)C(C)C1 (stereo not drawn) + CC(Nc1ccc2c(c1)OCCn1cc(N3C(=O)OCC3C(F)F)nc1-2)C(N)=O
inactive: viability, T/C [1] 101% | viability, T/C [2] 99.6% | viability, T/C [3] 103% | viability, T/C [4] 99.3% | viability, T/C [5] 91% | viability, T/C [6] 106% | viability, T/C [7] 96.9% | viability, T/C [8] 85% | viability, T/C [9] 90.4% | viability, T/C [10] 87.9% | viability, T/C [11] 92.5% | viability, T/C [12] 98.2% | viability, T/C [13] 134% | viability, T/C [14] 119% | viability, T/C [15] 101% | viability, T/C [16] 86% | viability, T/C [17] 85.8% | viability, T/C [18] 93.3% | viability, T/C [19] 88.4% | viability, T/C [20] 84.4% | viability, T/C [21] 98.3% | viability, T/C [22] 104% | viability, T/C [23] 89.5% | viability, T/C [24] 97.7% | viability, T/C [25] 80.9% | viability, T/C [26] 80.5% | viability, T/C [27] 71% | viability, T/C [28] 74.2% | viability, T/C [29] 72.5% | viability, T/C [30] 68.1% | viability, T/C [31] 86% | viability, T/C [32] 67.6% | viability, T/C [33] 66.3% | viability, T/C [34] 80.3% | viability, T/C [35] 86.9% | viability, T/C [36] 43.5%
8.04 µM: IC50 (second compound 1 µM)
> 10 µM: IC50 (second compound 0.00316 µM) | IC50 (second compound 0.01 µM) | IC50 (second compound 0.0316 µM) | IC50 (second compound 0.1 µM) | IC50 (second compound 0.316 µM)

CC(Cn1ccc(-c2ccc(C#N)c(Cl)c2)n1)NC(=O)c1cc(C(C)O)[nH]n1 (stereo not drawn) + CC(Nc1ccc2c(c1)OCCn1cc(N3C(=O)OCC3C(F)F)nc1-2)C(N)=O
4.18 µM: IC50 (second compound 1 µM)
8.81 µM: IC50 (second compound 0.1 µM)
7.05 µM: IC50 (second compound 0.316 µM)
inactive: viability, T/C [1] 66.3% | viability, T/C [2] 106% | viability, T/C [3] 91.7% | viability, T/C [4] 82.5% | viability, T/C [5] 105% | viability, T/C [6] 53.2% | viability, T/C [7] 89% | viability, T/C [8] 72.4% | viability, T/C [9] 97.3% | viability, T/C [10] 119% | viability, T/C [11] 96.7% | viability, T/C [12] 56.6% | viability, T/C [13] 78.5% | viability, T/C [14] 89.6% | viability, T/C [15] 96.6% | viability, T/C [16] 94.1% | viability, T/C [17] 90.5% | viability, T/C [18] 59.9% | viability, T/C [19] 61.6% | viability, T/C [20] 60.9% | viability, T/C [21] 83.8% | viability, T/C [22] 105% | viability, T/C [23] 84.9% | viability, T/C [24] 46.4% | viability, T/C [25] 96.7% | viability, T/C [26] 81.7% | viability, T/C [27] 68.2% | viability, T/C [28] 82.4% | viability, T/C [29] 75.3% | viability, T/C [30] 39.2% | viability, T/C [31] 64.9% | viability, T/C [32] 43% | viability, T/C [33] 83.7% | viability, T/C [34] 75.5% | viability, T/C [35] 49.6% | viability, T/C [36] 29%
> 10 µM: IC50 (second compound 0.00316 µM) | IC50 (second compound 0.01 µM) | IC50 (second compound 0.0316 µM)

Cn1ncc(Cl)c1-c1cc(C(=O)NC(CN)Cc2cccc(F)c2)sc1Cl (stereo not drawn) + CC(Nc1ccc2c(c1)OCCn1cc(N3C(=O)OCC3C(F)F)nc1-2)C(N)=O
inactive: viability, T/C [1] 107% | viability, T/C [2] 69% | viability, T/C [3] 60.8% | viability, T/C [4] 57.9% | viability, T/C [5] 56.5% | viability, T/C [6] 116% | viability, T/C [7] 104% | viability, T/C [8] 79.4% | viability, T/C [9] 53% | viability, T/C [10] 72.8% | viability, T/C [11] 40.9% | viability, T/C [12] 99.8% | viability, T/C [13] 102% | viability, T/C [14] 73.2% | viability, T/C [15] 56.7% | viability, T/C [16] 49.2% | viability, T/C [17] 35.9% | viability, T/C [18] 86% | viability, T/C [19] 80.6% | viability, T/C [20] 74.7% | viability, T/C [21] 55.5% | viability, T/C [22] 39.1% | viability, T/C [23] 32.5% | viability, T/C [24] 72.8% | viability, T/C [25] 70.9% | viability, T/C [26] 65.5% | viability, T/C [27] 47.1% | viability, T/C [28] 41% | viability, T/C [29] 28.1% | viability, T/C [30] 55.7% | viability, T/C [31] 56.7% | viability, T/C [32] 51.1% | viability, T/C [33] 43.3% | viability, T/C [34] 31.4% | viability, T/C [35] 39% | viability, T/C [36] 72.4%
> 10 µM: IC50 (second compound 0.00316 µM) | IC50 (second compound 0.01 µM) | IC50 (second compound 0.0316 µM)
0.761 µM: IC50 (second compound 0.1 µM)
< 0.0316 µM: IC50 (second compound 1 µM)
0.261 µM: IC50 (second compound 0.316 µM)

Cn1nccc1Nc1nccc(-c2ccn(C(CO)c3ccc(Cl)c(F)c3)c(=O)c2)n1 (stereo not drawn) + CC(Nc1ccc2c(c1)OCCn1cc(N3C(=O)OCC3C(F)F)nc1-2)C(N)=O
0.505 µM: IC50 (second compound 0.316 µM)
1.43 µM: IC50 (second compound 0.0316 µM)
0.777 µM: IC50 (second compound 0.1 µM)
0.147 µM: IC50 (second compound 1 µM)
1.4 µM: IC50 (second compound 0.00316 µM)
0.835 µM: IC50 (second compound 0.01 µM)
inactive: viability, T/C [1] 101% | viability, T/C [2] 92.6% | viability, T/C [3] 70.6% | viability, T/C [4] 57.2% | viability, T/C [5] 37.5% | viability, T/C [6] 37% | viability, T/C [7] 99.9% | viability, T/C [8] 82.1% | viability, T/C [9] 73.8% | viability, T/C [10] 41.4% | viability, T/C [11] 38.9% | viability, T/C [12] 33.7% | viability, T/C [13] 108% | viability, T/C [14] 81.9% | viability, T/C [15] 66% | viability, T/C [16] 59.5% | viability, T/C [17] 38.8% | viability, T/C [18] 31.4% | viability, T/C [19] 87.6% | viability, T/C [20] 71.7% | viability, T/C [21] 63.8% | viability, T/C [22] 48.6% | viability, T/C [23] 30.3% | viability, T/C [24] 25.8% | viability, T/C [25] 86.5% | viability, T/C [26] 71.2% | viability, T/C [27] 53% | viability, T/C [28] 44.7% | viability, T/C [29] 29.7% | viability, T/C [30] 21.6% | viability, T/C [31] 70.3% | viability, T/C [32] 55.1% | viability, T/C [33] 39.5% | viability, T/C [34] 30.1% | viability, T/C [35] 23.2% | viability, T/C [36] 23.4%
